Laboratory results taken from US9718787B2, “Poly (ADP-ribose) polymerase inhibitor” (CHENGDU DI'AO PHARMACEUTICAL GROUP CO., LTD., priority 2011, dated 2017).

Legend:
[1] = system: breast cancer cell line MDA-MB-361; assay: Cell proliferation inhibition assay, MDA-MB-361 (Cell Titer-Glo, 5 days); format: cell-based; settings: Homo sapiens, 120 h; MDA-MB-361, 5 days; read-out: IC50 MD-MBA-361
From the text: (§1) This assay was used to study the effect of PARP-1 inhibitor alone for tumor suppression. Breast cancer susceptibility genes BRCA1 and BRCA2 play an important role in homologous recombination DNA repair. BRCA-mutant (or deficient) cells represent homologous recombination repair defect, if PARP-mediated DNA repair is inhibited at the same time, DNA damage in cells may be increased, resulting in chromatin abnormality or even cell death.
(§2) BRCA-mutant (or deficient) human prostatic cancer cell line DU-145, lung adenocarcinoma cell line SW-1271, as well as breast cancer cell lines MDA-MB-436 and MDA-MB-361 were selected for the assay, PARP inhibitor was used alone to evaluate its damage effect on cells. The inhibition effect of the compound was expressed by IC50.
(§3) Prostatic cancer cell line DU-145 grown in EMEM supplement with 10% FBS was seeded in 96 well tissue culture plates (2000 cells/well). Lung adenocarcinoma cell line SW-1271 grown in L15 supplement with 10% FBS was seeded in 96 well tissue culture plates (4000 cells/well), and breast cancer cell line MDA-MB-361 grown in L15 supplement with 20% FBS was seeded in 96 well tissue culture plates (4000 cells/well). Test compounds (10 mM stock solution in DMSO) and reference compound staurosporine (1 mM stock solution in DMSO) were diluted by DMSO for 200 times to obtain the desired final concentration. 0.5 ul compound dilutions were directly added to the cells in 96 well plates, and the cells were incubated at 37° C. for 5 days. HPE control wells were added 1 uM staurosporine dilution, while ZPE wells were added 0.5% DMSO. After 5 days plates were equilibrated to room temperature and 50 ul of Cell Titer-Glo Reagent (Promega) was added to the culture wells. The plates were agitated briefly and luminescence signal was measured with Envision (PerkinElmer). […] IC50 values were calculated with Prism software (Graph Pad, San Diego, Calif., USA) for both test compounds and reference compound staurosporine.

[2] = system: prostatic cancer cell line DU-145; assay: Cell proliferation inhibition assay, DU-145 (Cell Titer-Glo, 5 days); format: cell-based; settings: Homo sapiens, 120 h; DU-145, 5 days
[3] = system: lung adenocarcinoma cell line SW-1271; assay: Cell proliferation inhibition assay, SW-1271 (Cell Titer-Glo, 5 days); format: cell-based; settings: Homo sapiens, SW1271, 120 h; SW-1271, 5 days
From the text: as §1, §2, §3

[4] = Pharmacokinetic test in male SD rats, tail vein injection; format: in vivo, rat; settings: for AUC(0-t) / MRT / clearance / half-life / Vd: rat, plasma, iv, 15 mg/kg tail vein injection; for Vd: read-out: Vdss
Procedure: Male SD rats were used as experimental animals in this test. […] LC-MS/MS method was used to test blood drug concentration, and Winnonlin 6.1 software was used to calculate pharmacokinetic parameters to study and evaluate the pharmacokinetic properties.
12 male SD rats weighed 180-260 g, purchased from Vital River Laboratory Animal Technology Co., Ltd.
0.2 mL blood was collected through jugular vein before dosing and at 5 min, 15 min, 30 min, 1 h, 2 h, 4 h, 8 h, 12 h and 24 h after the dosing, respectively, and put into heparinized tubes. The samples were centrifuged for 10 min at 5500 rpm to separate plasma, and stored at −30° C.
(§4) An aliquot of 20 μL of plasma sample was added with 200 μL acetonitrile (containing 5.00 ng/mL verapamil and 50.0 ng/mL glibenclamide as internal standards). The mixture was vortexed for 4 min, and then centrifuged at 3700 rpm for 18 min. An aliquot of 70 μL supernatant was added into 70 μL water, and then vortexed for 4 min. Finally, 10 μL of the mixture was injected into the LC-MS/MS system for analysis.
as §4, with “30” for “20”, “150” for “200”, “5” for “4”
Winnonlin 6.1 software was used to calculate pharmacokinetic parameters.

[5] = system: mice following a two hour occlusion of the MCA; settings: intracerebroventricular administration; cited from earlier work
[6] = system: rat model of focal cerebral ischemia; settings: i.p. 10 mg/kg two hours prior to and two hours after initiation of ischemia; cited from earlier work
[7] = Solubility test (thermodynamic solubility in pH 7.4 phosphate buffer, HPLC); format: physicochemical
Procedure: In this test, excess amount of test sample was added into pH=7.4 phosphate buffer. Ultrasonic was performed for 30 min until the drug no longer dissolved. The solution was continuously shaked for 24 hours at a constant temperature of 25° C. to achieve a thermodynamic equilibrium of compound, and then the solution was filtrated to get filtrate. Quantitative analysis of compound in filtrate using external standard method is performed according to “Appendix VD High Performance Liquid Chromatography, Part II of Pharmacopeia 2010,” and the sample thermohynamic solubility in pH=7.4 phosphate buffer was determined.
Agilent 1200 LC, Phenomen C18 column (4.6 mm*150 mm, […]), mobile phase: methanol:water (60:40), flow rate: 1 mL/min, column temperature: 25° C., wave length: 230 nm, injection volume: 10 μL
About 30 mg test compound was put in a 10 mL volumetric flask, about 8 mL pH=7.4 phosphate buffer was added and ultrasonic was performed for 30 min, and the solution was shaked for 24 hours in a shaker at a constant temperature of 25° C. The solution was settled for half an hour under 25° C., filtered with 0.45 μm hydrophilic filter. The filtrate was used as test sample. […]
The test solution was injected for three times according to the above chromatographic conditions. The peak area was measured to calculate the corresponding concentration. […]

O=C(c1cc(Cc2n[nH]c(=O)c3ccccc23)ccc1F)N1CCN(C(=O)C2CC2)CC1 [AZD-2281, olaparib]
IC50 [1]: > 10000 nM
IC50 [2]: 65000 nM
IC50 [3]: 17400 nM
exposure ([4]; 15 mg/kg i.v.): low exposure
metabolic stability ([4]; 15 mg/kg i.v.): poor metabolic stability
AUC(0-t) [4]: 6440 ng·h/mL
MRT [4]: 19.8 min
clearance [4]: 39.1 mL/min/kg
half-life [4]: 40.9 min
Vd [4]: 0.766 L/kg

NC(=O)c1cccc(N)c1 [Compound 3-AB, 3-aminobenzamide]
decrease in infarct volume [5]: 47%

O=C1NCCc2c(OCCCCN3CCCCC3)cccc21 [DPQ, 3,4-dihydro-5-[4-(1-piperidinyl)butoxy]-1 (2H)-isoquinolinone]
reduction in infarct volume [6]: 54%

O=C(c1cc(Oc2n[nH]c(=O)c3ccccc23)ccc1F)N1CCN(C(=O)C2CCC(F)(F)CC2)CC1 [Compound 107, 4-(3-(4-(4,4-difluorocyclohexanecarbonyl)piperazine-1-carbonyl)-4-fluorophenoxy)2H-phthalazin-1-one]
IC50 [1]: 1900 nM
IC50 [3]: 770 nM

CN(C)C1(C(=O)N2CCN(C(=O)c3cc(Oc4n[nH]c(=O)c5ccccc45)ccc3F)CC2)CCC1 [Compound 126, 4-(3-(4-(1-(dimethylamino)cyclobutanecarbonyl)piperazine-1-carbonyl)-4-fluorophenoxy)2H-phthalazin-1-one]
IC50 [1]: 4000 nM
IC50 [2]: 1900 nM
IC50 [3]: 1100 nM

CN(C)C1(C(=O)N2CCN(C(=O)c3cc(Oc4n[nH]c(=O)c5ccccc45)ccc3F)CC2)CC1 [Compound 124, 4-(3-(4-(1-(dimethylamino)cyclopropanecarbonyl)piperazine-1-carbonyl)-4-fluorophenoxy)2H-phthalazin-1-one]
water solubility relative to AZD-2281 [7]: enhanced by almost twice
IC50 [2]: 2700 nM
IC50 [3]: 1600 nM
pharmacokinetic properties relative to AZD-2281 ([4]; 15 mg/kg i.v.): significantly superior to AZD-2281
AUC(0-t) [4]: 10100 ng·h/mL
MRT [4]: 22.4 min
clearance [4]: 28 mL/min/kg
half-life [4]: 185 min
Vd [4]: 0.665 L/kg

O=C(c1cc(Oc2n[nH]c(=O)c3ccccc23)ccc1F)N1CCN(C(=O)N2CCCCC2)CC1 [Compound 85, 4-(4-fluoro-3-(4-(piperidine-1-carbonyl)piperazine-1-carbonyl)phenoxy)-2H-phthalazin-1-one]
IC50 [1]: 2400 nM
IC50 [2]: 3700 nM
IC50 [3]: 1500 nM
